# Laboratory results from patent US8853193B2, “Thienopyrimidines containing a substituted alkyl group for pharmaceutical compositions” (Boehringer Ingelheim International GmbH, priority 2010, dated 2014).
# Structures can show the parent of a compound that is named as a salt.
# Biological target: human Mnk2a (Homo sapiens (Human), UniProt Q9HBH9)
# Experiment: Mnk2a in vitro kinase assay (indirect competitive fluorescence polarization)
# Format: biochemical
# Settings: pre-activated GST-Mnk2a 2.5 nM, 20 μM ATP, 30 μM substrate peptide; read-out: MNK2 IC50
# How it was run: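 GST-tagged human Mnk2a expressed in E. coli and glutathione-purified, then activated at 2.5 μM with 150 nM pre-activated NHis-ERK2 and 50 μM ATP in HEPES/KOH pH 7.4, MgCl2, DTT, Brij 78 for 45 min at 30 °C. Phospho-peptide product read by indirect competitive fluorescence polarization against fluorophore-labelled phospho-peptide bound to phospho-specific antibody.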
# Sequence of human Mnk2a (Q9HBH9 whole entry): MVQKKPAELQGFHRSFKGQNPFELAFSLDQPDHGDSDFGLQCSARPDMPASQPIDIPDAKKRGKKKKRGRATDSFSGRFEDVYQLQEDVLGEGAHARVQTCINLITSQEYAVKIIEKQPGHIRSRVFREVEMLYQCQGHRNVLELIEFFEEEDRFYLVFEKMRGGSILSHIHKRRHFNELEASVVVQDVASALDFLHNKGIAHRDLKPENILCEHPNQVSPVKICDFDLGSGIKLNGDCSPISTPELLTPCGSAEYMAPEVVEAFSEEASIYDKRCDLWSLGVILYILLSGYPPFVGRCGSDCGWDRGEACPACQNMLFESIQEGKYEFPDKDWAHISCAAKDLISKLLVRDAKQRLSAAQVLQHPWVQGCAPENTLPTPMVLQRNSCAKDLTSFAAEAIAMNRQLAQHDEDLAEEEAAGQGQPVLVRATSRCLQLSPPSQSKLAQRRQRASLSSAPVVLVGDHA
row,IC50,SMILES
1,0.018 µM,Cc1c(C(=O)NCCCN(C)C)sc2ncnc(Nc3ccc(F)cc3OC(C)CNS(C)(=O)=O)c12 (stereo not shown) [Compound 3-3]
2,0.012 µM,Cc1c(C(=O)NCCCN2CCCC2)sc2ncnc(Nc3ccc(F)cc3OC(C)CC(F)(F)F)c12 (stereo not shown) [Compound 32-42]
3,0.07 µM,"COC(=O)c1sc2ncnc(Nc3ccc(F)cc3OC(C)CN)c2c1C (stereo not shown) [Compound 2-1, Methyl 4-(2-(1-aminopropan-2-yloxy)-4-fluorophenylamino)-5-methyl-thieno[2,3-d]pyrimidine-6-carboxylate trifluoroacetate]"
4,0.017 µM,Cc1c(C(=O)NCCCN(C)C)sc2ncnc(Nc3ccc(F)cc3OC(C)C#N)c12 (stereo not shown) [Compound 63]
5,0.012 µM,"Cc1c(C(=O)NCCCN2CCCC2)sc2ncnc(Nc3ccc(C#N)cc3OC(CF)CF)c12 [Compound 48, 4-[4-Cyano-2-(2-fluoro-1-fluoromethyl-ethoxy)-phenylamino]-5-methyl-thieno[2,3-d]pyrimidine-6-carboxylic acid (3-pyrrolidin-1-yl-propyl)-amide]"
6,0.014 µM,Cc1c(C(=O)O)sc2ncnc(Nc3ccc(F)cc3OCCC(F)(F)F)c12 [Compound 32-11]
7,0.035 µM,COCC(C)Oc1cc(F)ccc1Nc1ncnc2sc(C(=O)NCCCN(C)C)c(C)c12 (stereo not shown) [Compound 32-35]
8,0.025 µM,"Cc1c(C(=O)O)sc2ncnc(Nc3ccc(F)cc3OC(C)CC(C)(C)O)c12 (stereo not shown) [Compound 20-2, 4-(4-fluoro-2-(4-hydroxy-4-methylpentan-2-yloxy)phenylamino)-5-methyl-thieno[2,3-d]pyrimidine-6-carboxylic acid]"
9,0.015 µM,Cc1c(C(N)=O)sc2ncnc(Nc3cccnc3OCC3CC3(F)F)c12 (stereo not shown) [Compound 34-4]
10,0.013 µM,"CCNC(=O)C(C)Oc1cc(F)ccc1Nc1ncnc2sc(C(=O)NC)c(C)c12 (stereo not shown) [Compound 31-6, 4-(2-(1-(ethylamino)-1-oxo-propan-2-yloxy)-4-fluorophenyl-amino)-N,5-dimethyl-thieno[2,3-d]pyrimidine-6-carbox-amide]"
11,0.056 µM,Cc1c(C(N)=O)sc2ncnc(Nc3ccc(F)cc3OC(CO)CO)c12 [Compound 32-30]
12,0.074 µM,"Cc1c(C(=O)NCCCN(C)C)sc2ncnc(Nc3cccnc3OC(C)CCN)c12 (stereo not shown) [Compound 16-3, 4-(2-(4-Aminobutan-2yloxy)pyridin-3-ylamino)-N-(3-(dimethylamino)propyl)-5-methylthieno[2,3-d]pyrimidine-6-carboxamide bis(2,2,2-trifluoroacetate)]"
13,0.026 µM,"COCC(C)Oc1ncccc1Nc1ncnc2sc(C(N)=O)c(C)c12 (stereo not shown) [Compound 28-3, 4-(2-(1-Methoxygrogan-2-yloxy)gyridin-3-ylamino)-5-methyl-thieno[2,3-d]gyrimidine-6-carboxamide]"
14,0.418 µM,"COC(=O)c1sc2ncnc(Nc3cccnc3OC(C)CN)c2c1C (stereo not shown) [Compound 11-2, Methyl 4-(2-(1-aminopropan-2yloxy)-pyridin-3-ylamino)-5-methyl-thieno[2,3-d]pyrimidine-6-carboxylate hydrochloride]"
15,0.054 µM,"Cc1c(C(=O)NC2CCN(C)CC2)sc2ncnc(Nc3cccnc3OC(C)C(F)(F)F)c12 (stereo not shown) [Compound 21-4, 5-methyl-N-(1-methylpiperidin-4-yl)-4-(2-(1,1,1-trifluoropropan-2-yloxy)pyridin-3-ylamino)thieno[2,3-d]pyrrimidine-6-carboxamide]"
16,0.267 µM,"COC(=O)c1sc2ncnc(Nc3ccc(F)cc3OC(C)C(=O)NCCN(C)C)c2c1C (stereo not shown) [Compound 62, 4-{2-[1-(2-Dimethylamino-ethylcabamoyl)-ethoxy]-4-fluoro-phenylamino}-5-methyl-thieno[2,3-d]pyrimidine-6-carboxylic acid methyl ester]"

row,IC50,SMILES
1,0.029 µM,"Cc1c(C(=O)NCCCN(C)C)sc2ncnc(Nc3cccnc3OC(C)C)c12 [Compound 36, N-(3-(Dimethylamino)propyl)-4-(2-isopropoxypyridin-3-ylamino)-5-methyl-thieno[2,3-d]pyrimidine-6-carboxamide]"
2,0.146 µM,Cc1c(C(=O)NCCCN(C)C)sc2ncnc(Nc3ccc(F)cc3OC(CO)CO)c12 [Compound 32-31]
3,0.02 µM,"CCNC(=O)C(C)Oc1cc(F)ccc1Nc1ncnc2sc(C(=O)NCCCN(C)C)c(C)c12 (stereo not shown) [Compound 40, 4-[2-(1-Ethylcarbamoyl-ethoxy)-4-fluoro-phenylamino]-5-methyl-thieno[2,3-d]pyrimidine-6-carboxylic acid (3-dimethylamino-propyl)-amide]"
4,0.125 µM,"COC(=O)c1sc2ncnc(Nc3ccc(C#N)cc3OC(CF)CF)c2c1C [Compound 47, Methyl 4-[4-cyano-2-(2-fluoro-1-fluoromethyl-ethoxy)phenylamino]-5-methyl-thieno[2,3-d]pyrimidine-6-carboxylate]"
5,0.047 µM,"Cc1c(C(=O)NCCCN(C)C)sc2ncnc(Nc3cccnc3OCC3(CC#N)CC3)c12 [Compound 33, 4-(2-((1-(Cyanomethyl)cyclopropyl)methoxy)pyridin-3-ylamino)-N-(3-(dimethylamino)propyl)-5-methylthieno[2,3-d]pyrimidine-6-carboxamide hydrochloride]"
6,0.073 µM,"Cc1c(C(=O)NCCCN(C)C)sc2ncnc(Nc3cccnc3OCC(C)F)c12 (stereo not shown) [Compound 27-4, N-(3-(dimethylamino)-propyl)-4-(2-(2-fluoro-propoxy)pyridin-3-ylamino)-5-methyl-thieno[2,3-d]pyrimidine-6-carboxamide hydrochloride]"
7,0.018 µM,COCC(C)Oc1cc(F)ccc1Nc1ncnc2sc(C(=O)O)c(C)c12 (stereo not shown) [Compound 32-10]
8,0.037 µM,"Cc1c(C(N)=O)sc2ncnc(Nc3ccc(F)cc3OC(C)C(C)(C)O)c12 (stereo not shown) [Compound 60, 4-[4-Fluoro-2-(2-hydroxy-1,2-dimethyl-propoxy)-phenylamino]-5-methyl-thieno[2,3-d]pyrimidine-6-carboxylic acid amide]"
9,0.003 µM,Cc1c(C(N)=O)sc2ncnc(Nc3ccc(F)cc3OC(C)CF)c12 (stereo not shown) [Compound 32-28]
10,0.093 µM,"COCC(C)Oc1ncccc1Nc1ncnc2sc(C(=O)NCCCN(C)C)c(C)c12 (stereo not shown) [Compound 28-5, N-(3-(di-methylamino)propyl)-4-(2-(1-methoxy-propan-2-yloxy)pyridin-3-ylamino)-5-methlthieno-[2,3-d]pyrimi-dine-6-carboxamide hydrochloride]"
11,0.041 µM,"Cc1c(C(=O)NCCCN(C)C)sc2ncnc(Nc3ccc(F)cc3OC(C)CN)c12 (stereo not shown) [Compound 2-2, 4-(2-(1-Amino-propan-2-yloxy)-4-fluorophenylamino)-N-(3-(diemthyl-amino)propyl)-5-methylthieno[2,3-d]pyrimidine-6-carboxamide bis(trifloroacetate)]"
12,0.036 µM,Cc1c(C(=O)NCCCN(C)C)sc2ncnc(Nc3ccc(F)cc3OCC3CC3(F)F)c12 (stereo not shown) [Compound 32-22]
13,0.064 µM,"Cc1c(C(=O)NCC2COCCN2)sc2ncnc(Nc3cccnc3OC(C)C)c12 (stereo not shown) [Compound 36-14, 4-(2-Isopropoxypyridin-3ylamino)-5-methyl-N-(morpholin-3-ylmethyl) thieno[2,3-d]pyrimidine-6-carboxamide]"
14,0.005 µM,Cc1c(C(=O)O)sc2ncnc(Nc3ccc(F)cc3OC(C)CF)c12 (stereo not shown) [Compound 32.7]
15,0.029 µM,"Cc1c(C(=O)NCCO)sc2ncnc(Nc3ccc(F)cc3OC(C)C(=O)NCCN)c12 (stereo not shown) [Compound 59, 4-{2-[1-(2-Amino-ethylcarbamoyl)-ethoxy]-4-fluoro-phenylamino}-5-methyl-thieno[2,3-d]pyrimidine-6-carboxylic acid (2-hydroxy-ethyl)amide]"
